Patent US4017622A, “Piperazine derivatives” (Dainippon Pharmaceutical Co., Ltd., priority 1972, dated 1977)

Key:
[1] = tested on: Pseudomonas aeruginosa Tsuchijima; experiment: In vitro antibacterial activity (MIC, serial dilution), Pseudomonas aeruginosa; conditions: nutrient broth, pH 7.0; 37° C for 48 hours
Procedure: (§6) The minimum inhibitory concentration (MIC) was
(§7) determined by the well known serial dilution method.
(§8) Medium: nutrient broth, pH 7.0 (5 ml/tube)
(§9) Inoculum: 1 drop of 1 : 10^5 dilution of an
overnight broth culture per tube

[2] = tested on: Staphylococcus aureus Terajima; experiment: In vitro antibacterial activity (MIC, serial dilution), Staphylococcus aureus; conditions: nutrient broth, pH 7.0; 37° C for 48 hours
Procedure: as §6, §7, §8, §9
overnight broth culture per tube

Escherichia coli K-12 = experiment: In vitro antibacterial activity (MIC, serial dilution), Escherichia coli; conditions: nutrient broth, pH 7.0; 37° C for 48 hours
Procedure: as §6, §7, §8, §9
overnight broth culture per tube

Acute toxicity in mice = conditions: mouse, in vivo
Procedure: (§1) In the Tables II and III, the ED50 and LD50 values were calculated in accordance with the Bcherns-Kaerber method [Arch. Exp. Path, Pharm., 162, 480 (1931)].
3) Acute toxicity in mice
Experimental conditions:
Mice: male mice (ddY-S) weighing 20 g approximately
Drug: alkaline solution (pH 8 - 9) for intravenous
administration and suspension in 0.2%
carboxymethyl cellulose for oral administration.
iv: intravenous administration.
ip: oral administration.

[3] = tested on: Pseudomonas aeruginosa No. 12; experiment: In vivo efficacy against systemic infection with Pseudomonas aeruginosa in mice; conditions: NO.12, 168 h, male ddY-S mice, ip, twice, about 5 minutes and 6 hours after infection, observation 7 days
Procedure: as §1
(§2) 2) In vivo efficacy against systemic infection with
(§3) Pseudomonas aeruginosa and Salmonella typhimurium
*Experimental conditions:
Organism: Pseudomonas aeruginosa No. 12
Mice: male mice (ddY-S) weighing 20 g approximately.
intraperitoneal infection with 50 to 100
LD50 (about 5 × 10^3 cells/mouse) of a
bacterial suspension in 4% gastric mucin.
twice, about 5 minutes and 6 hours after
(§4) Drug: an alkaline solution (pH 8 - 9) for intraperitoneal
(§5) ip: intraperitoneal administration.

[4] = tested on: Salmonella typhimurium S-9; experiment: In vivo efficacy against systemic infection with Salmonella typhimurium in mice; conditions: Salmonella enterica, 336 h, male ddY-S mice, twice a day for 4 days, observation 14 days
Procedure: as §1, §2, §3
**Experimental conditions:
Organism: Salmonella typhimurium S-9
Ice: male mice (ddY-S) weighing 20 g approximately.
Intraperitoneal infection with 50 to 100
LD50 (about 10^5 cells/mouse) of a bacterial
suspension in a nutrient broth.
twice a day for 4 days from the day of
as §4
administration and suspension in 0.2% carboxymethyl
cellulose for oral administration.
as §5
po: oral administration.

| SMILES | minimum inhibitory concentration (MIC), Pseudomonas aeruginosa Tsuchijima [1] | minimum inhibitory concentration (MIC), Staphylococcus aureus Terajima [2] | minimum inhibitory concentration (MIC), Escherichia coli K-12 (Escherichia coli K-12) | LD50 at 168 h (Acute toxicity in mice; male ddY-S mice, iv, observation 7 days) [mg/kg] | LD50 at 168 h (Acute toxicity in mice; male ddY-S mice, po, observation 7 days) [mg/kg] | ED50 [3] [mg/kg] | LD50 at 168 h (Acute toxicity in mice; iv) [mg/kg] | LD50 at 168 h (Acute toxicity in mice; po) [mg/kg] | ED50 ([4]; ip) [mg/kg] | ED50 ([4]; po) [mg/kg] |
| --- | --- | --- | --- | --- | --- | --- | --- | --- | --- | --- |
| CCn1cc(C(=O)O)c(=O)c2cnc(N3CCCC3)nc21 [PA, 5,8-dihydro-8-ethyl-2-pyrrolidino-5-oxopyrido [2,3-d]pyrimidine-6-carboxylic acid, reference compound] | 100 | 10 | 1 | 268 | > 4000 | > 100 |  |  |  |  |
| CCn1cc(C(=O)O)c(=O)c2ccc(N3CCN(C)CC3)cc21 [compound 1090] | 30 | 30 | 1 |  |  | 91.4 | > 500 | 2000 | 9.6 | 13.6 |
| CCn1cc(C(=O)O)c(=O)c2ccc(N3CCNCC3)cc21 [compound 1091] | 10 | 30 | 1 |  |  | 6.3 | > 500 | 2000 | 15.5 | ~109 |
| CN1CCN(c2ccc3c(=O)c(C(=O)O)cn(Cc4ccccc4)c3c2)CC1 [compound 1147] | 10 | > 100 | 1 |  |  |  |  |  |  |  |
| O=C(O)c1cn(Cc2ccccc2)c2cc(N3CCNCC3)ccc2c1=O [compound 1162] | 10 | 30 | 1 |  |  |  |  |  |  |  |
| CCn1cc(C(=O)O)c(=O)c2ccc(N3CCNCC3)nc21 [compound 1214] | 10 | 30 | 3 |  |  | 9.2 | > 500 |  | 18.7 | ~43.8 |
| CCn1cc(C(=O)O)c(=O)c2ccc(N3CCN(C)CC3)nc21 [compound 1225] | 30 | 100 | 1 |  |  |  |  |  |  |  |
| CCn1cc(C(=O)O)c(=O)c2ccc(N(C)C)nc21 [compound 1249] | > 100 | 100 | 1 |  |  | > 100 |  |  |  |  |
| C=Cn1cc(C(=O)O)c(=O)c2ccc(N3CCN(C)CC3)nc21 [compound 1276] | 10 | > 100 | 1 |  |  |  |  |  |  |  |
| CCn1cc(C(=O)O)c(=O)c2cnc(N3CCN(C)CC3)cc21 [compound 1317] | 100 | 30 | 3 |  |  | 50 | > 500 |  | 14.9 | 23.9 |
| CCn1cc(C(=O)O)c(=O)c2cnc(N3CCNCC3)cc21 [compound 1367] | 30 | > 100 | 3 |  |  | ~12.5 |  |  | 54.5 | 70.7 |
| C=Cn1cc(C(=O)O)c(=O)c2ccc(N3CCNCC3)nc21 [compound 1424] | 10 | 100 | 1 |  |  | 3.9 | 354 | > 2000 | 19.3 | 22.9 |
| C=Cn1cc(C(=O)O)c(=O)c2ccc(N3CCN(C)CC3)cc21 [compound 1493] | 3 | 100 | 1 |  |  | 17.8 | > 500 | > 2000 | 3.4 | 8.8 |
| C=Cn1cc(C(=O)O)c(=O)c2ccc(N3CCN(CC)CC3)cc21 [compound 1557] | 10 | 30 | 1 |  |  | 19.3 | 354 | > 2000 | 5.1 | 11.5 |
